Data: US20120094949A1, “HISTONE MODIFICATION PATTERNS FOR CLINICAL DIAGNOSIS AND PROGNOSIS OF CANCER” (The Regents of the University of California, priority 2009, published 2012)

Legend:
[1] = system: pancreatic adenocarcinoma; assay: Kaplan-Meier survival analysis comparing adjuvant treatments within histone groups, RTOG 9704 TMA; format: in vivo, human; settings: adjuvant chemotherapy; for overall or disease-free survival, gemcitabine or 5-FU: each of the high level histone subgroups
Method: METHODS: Tissue microarrays (TMAs) from two large pancreatic adenocarcinoma cohorts were examined, including a 195 patient cohort from RTOG 9704, a multi-center phase III randomized treatment trial comparing adjuvant gemcitabine versus 5-fluorouracil (5-FU), and a 140 patient cohort of Stage I or II cancer from UCLA Medical Center. Immunohistochemistry for three histone modifications (H3K4me2, H3K9me2 and H3K18ac) was performed. Positive tumor cell staining of the histone modifications was used to classify patients into low and high staining groups, which were related to clinicopathologic parameters and clinical outcome measures.
Pancreatic adenocarcinoma patients and tissue microarrays. The RTOG 9704 pancreatic cancer tissue microarray (TMA) consisted of 229 cases of pancreatic adenocarcinoma obtained from patients enrolled in RTOG 9704, a phase III randomized post-operative adjuvant treatment trial comparing 5-fluorouracil (5-FU) to gemcitabine before and after chemoradiation (Regine et al., Jama 299:1019-26 (2008)). In RTOG 9704, all patients received adjuvant chemotherapy (5-FU or gemcitabine) for durations of one month before and three months following chemoradiation therapy, which included 5-FU infusion as a radiation sensitizer. Clinicopathologic factors were collected as part of patient enrollment, as were treatment schedules and follow-up clinical information including toxicity, overall survival and disease-free survival. The UCLA Stage I/II pancreatic cancer TMA consisted of 140 cases of AJCC stage I or II pancreatic adenocarcinoma from the UCLA Department of Pathology and Laboratory Medicine archives, representing patients who underwent complete gross resection of tumor at UCLA Medical Center between 1987 and 2005. All work was performed with appropriate institutional review board approvals.
Statistical Analysis. Specific histone cut-offs were previously shown to predict survival in subsets of patients with multiple types of carcinoma, including prostate, lung and kidney (Seligson et al., Am J Pathol 174:1619-1628 (2009); Seligson et al., Nature 435:1262-6 (2005)). In order to standardize and apply these same cut-offs in both pancreatic cancer TMAs, each tumor was assigned a percent rank value (quantile) based on median percent of cells staining relative to its TMA dataset using the SAS system procedure RANK with TIES=LOW option, which assigns the smallest of the corresponding ranks for the ties data values. Each tumor was then assigned into a low or high level staining group based on its percent rank, including H3K4me2 (<60 vs. ≧60 percent rank), H3K9me2 (<30 vs. ≧30 percent rank for the RTOG TMA or <25 vs. ≧25 percent rank for the UCLA Stage I/II TMA) and H3K18ac (<35 vs. ≧35 percent rank). Survival estimates were generated and visualized using the Kaplan-Meier method and survival curves were compared using the log-rank test. Multivariate Cox proportional hazards models were used to test statistical independence and significance of multiple predictors. Overall survival time was measured from the date of randomization (RTOG 9704 TMA) or date of surgery (UCLA Stage I/II TMA) to the date of death due to any cause or last follow-up. Disease-free survival time was only determined for RTOG 9704 and was measured from the date of randomization to the date of first disease-free failure event defined as local or regional disease relapse, distant disease, second primary or death due to any cause. […]

[2] = system: pancreatic adenocarcinoma; settings: setting of fluorouracil-based chemoradiation; resected pancreatic cancer; cited from earlier work

SMILES	overall or disease-free survival, gemcitabine or 5-FU ([1]; data not shown)	overall survival, 5-FU versus gemcitabine ([1]; low H3K4me2 subgroup, data not shown)	disease-free survival, 5-FU versus gemcitabine ([1]; low H3K4me2 subgroup, log rank test p=0.014)	disease-free survival, 5-FU versus gemcitabine ([1]; low H3K18ac subgroup, log rank test p=0.015)	survival benefit of adjuvant gemcitabine over adjuvant 5-FU [2]
O=c1[nH]cc(F)c(=O)[nH]1 [5-FU, 5-fluorouracil]	no significant differences	non-significant trend towards worse overall survival	worse disease-free survival	worse disease-free survival	–
Nc1ccn([C@@H]2O[C@H](CO)[C@@H](O)C2(F)F)c(=O)n1 [gemcitabine]	no significant differences	–	–	–	non-statistically significant survival benefit
